# Reference: patent publication EP4635500A1, “THERAPEUTIC AGENT FOR BACTERIAL INFECTION” (Sumitomo Pharma Co., Ltd., priority 2022, dated 2024)
# Like-named read-outs stand apart in the source and are kept apart here.
# What was measured:
# Enterobacterales = test: MIC, broth microdilution, CDC/FDA Antibiotic Resistance Isolate Bank (Example 7, Tables 8, 11, 12); assay type: cell-based; conditions: carbapenemase-producing Enterobacterales, Serine carbapenemase (N=61); read-out: MIC90
# A. baumannii = test: MIC, broth microdilution, CDC/FDA Antibiotic Resistance Isolate Bank (Example 7, Tables 9, 13, 14); assay type: cell-based, Acinetobacter baumannii; conditions: for MIC: read-out: MIC
compound,measurement,setting,value
"CO/N=C(\C(=O)N[C@@H]1C(=O)N2C(C(=O)[O-])=C(C[n+]3ccn4ncccc43)CS[C@H]12)c1nsc(N)n1 [Cefozopran, cefozopran]",MIC90,Enterobacterales,> 64 µg/mL
same,MIC,"A. baumannii; Acinetobacter baumannii, A. baumannii KUB No. 5567, AR Bank #70, OXA-58, OXA-100",2 µg/mL
same,MIC,"A. baumannii; Acinetobacter baumannii, A. baumannii KUB No. 5575, AR Bank #78, OXA-71",> 64 µg/mL
same,MIC,"A. baumannii; Acinetobacter baumannii, A. baumannii KUB No. 5580, AR Bank #83, OXA-23, OXA-69, NDM-1",> 64 µg/mL
same,MIC,"A. baumannii; Acinetobacter baumannii, A. baumannii KUB No. 5585, AR Bank #88, OXA-64, NDM-1",> 64 µg/mL
same,MIC,"A. baumannii; Acinetobacter baumannii, A. baumannii KUB No. 5598, AR Bank #101, OXA-24, OXA-65",32 µg/mL
same,MIC,"A. baumannii; Acinetobacter baumannii, A. baumannii KUB No. 5599, AR Bank #102, OXA-66",8 µg/mL
same,MIC,"A. baumannii; Acinetobacter baumannii, A. baumannii KUB No. 5706, AR Bank #273, OXA-23, OXA-66",64 µg/mL
same,MIC,"A. baumannii; Acinetobacter baumannii, A. baumannii KUB No. 5707, AR Bank #274, OXA-66, OXA-72",16 µg/mL
same,MIC,"A. baumannii; Acinetobacter baumannii, A. baumannii KUB No. 5708, AR Bank #275, OXA-23, OXA-66",64 µg/mL
same,MIC,"A. baumannii; Acinetobacter baumannii, A. baumannii KUB No. 5709, AR Bank #276, no carbapenemase genes (-)",> 64 µg/mL
same,MIC,"A. baumannii; Acinetobacter baumannii, A. baumannii KUB No. 5710, AR Bank #277, OXA-24, OXA-65",64 µg/mL
same,MIC,"A. baumannii; Acinetobacter baumannii, A. baumannii KUB No. 5711, AR Bank #278, OXA-23, OXA-66",64 µg/mL
same,MIC,"A. baumannii; Acinetobacter baumannii, A. baumannii KUB No. 5712, AR Bank #279, OXA-23, OXA-66",64 µg/mL
same,MIC,"A. baumannii; Acinetobacter baumannii, A. baumannii KUB No. 5713, AR Bank #280, OXA-66",8 µg/mL
same,MIC,"A. baumannii; Acinetobacter baumannii, A. baumannii KUB No. 5714, AR Bank #281, OXA-82",8 µg/mL
same,MIC,"A. baumannii; Acinetobacter baumannii, A. baumannii KUB No. 5715, AR Bank #282, OXA-23, OXA-66",64 µg/mL
same,MIC,"A. baumannii; Acinetobacter baumannii, A. baumannii KUB No. 5716, AR Bank #283, OXA-23, OXA-66",32 µg/mL
same,MIC,"A. baumannii; Acinetobacter baumannii, A. baumannii KUB No. 5717, AR Bank #284, OXA-24, OXA-65",16 µg/mL
same,MIC,"A. baumannii; Acinetobacter baumannii, A. baumannii KUB No. 5718, AR Bank #285, OXA-24, OXA-65",32 µg/mL
same,MIC,"A. baumannii; Acinetobacter baumannii, KUB No. 5719, AR Bank #286",32 µg/mL
same,MIC,"A. baumannii; Acinetobacter baumannii, KUB No. 5720, AR Bank #287",32 µg/mL
same,MIC,"A. baumannii; Acinetobacter baumannii, KUB No. 5721, AR Bank #288",64 µg/mL
same,MIC,"A. baumannii; Acinetobacter baumannii, KUB No. 5722, AR Bank #259",8 µg/mL
same,MIC,"A. baumannii; Acinetobacter baumannii, KUB No. 5723, AR Bank #290",> 64 µg/mL
same,MIC,"A. baumannii; Acinetobacter baumannii, KUB No. 5724, AR Bank #291",32 µg/mL
same,MIC,"A. baumannii; Acinetobacter baumannii, KUB No. 5725, AR Bank #292",16 µg/mL
same,MIC,"A. baumannii; Acinetobacter baumannii, KUB No. 5726, AR Bank #293",16 µg/mL
same,MIC,"A. baumannii; Acinetobacter baumannii, KUB No. 5727, AR Bank #294",> 64 µg/mL
same,MIC,"A. baumannii; Acinetobacter baumannii, KUB No. 5728, AR Bank #295",64 µg/mL
same,MIC,"A. baumannii; Acinetobacter baumannii, KUB No. 5729, AR Bank #296",> 64 µg/mL
same,MIC,"A. baumannii; Acinetobacter baumannii, KUB No. 5730, AR Bank #297",64 µg/mL
same,MIC,"A. baumannii; Acinetobacter baumannii, KUB No. 5731, AR Bank #298",16 µg/mL
same,MIC,"A. baumannii; Acinetobacter baumannii, KUB No. 5732, AR Bank #299",> 64 µg/mL
same,MIC,"A. baumannii; Acinetobacter baumannii, KUB No. 5733, AR Bank #300",8 µg/mL
same,MIC,"A. baumannii; Acinetobacter baumannii, KUB No. 5734, AR Bank #301",> 64 µg/mL
same,MIC,"A. baumannii; Acinetobacter baumannii, KUB No. 5735, AR Bank #302",> 64 µg/mL
same,MIC,"A. baumannii; Acinetobacter baumannii, KUB No. 5736, AR Bank #303",32 µg/mL
same,MIC,"A. baumannii; Acinetobacter baumannii, KUB No. 5737, AR Bank #304",8 µg/mL
same,MIC,"A. baumannii; Acinetobacter baumannii, KUB No. 5738, AR Bank #305",16 µg/mL
same,MIC,"A. baumannii; Acinetobacter baumannii, KUB No. 5739, AR Bank #306",64 µg/mL
same,MIC,"A. baumannii; Acinetobacter baumannii, KUB No. 5740, AR Bank #307",16 µg/mL
same,MIC,"A. baumannii; Acinetobacter baumannii, KUB No. 5741, AR Bank #308",4 µg/mL
same,MIC,"A. baumannii; Acinetobacter baumannii, KUB No. 5742, AR Bank #309",64 µg/mL
same,MIC,"A. baumannii; Acinetobacter baumannii, KUB No. 5743, AR Bank #310",64 µg/mL
same,MIC,"A. baumannii; Acinetobacter baumannii, KUB No. 5744, AR Bank #311",> 64 µg/mL
same,MIC,"A. baumannii; Acinetobacter baumannii, KUB No. 5745, AR Bank #312",16 µg/mL
same,MIC,"A. baumannii; Acinetobacter baumannii, KUB No. 5746, AR Bank #313",64 µg/mL
same,MIC50,"A. baumannii; Acinetobacter baumannii, 55 isolates of A. baumannii, read-out: MIC50",64 µg/mL
same,MIC80,"A. baumannii; Acinetobacter baumannii, 55 isolates of A. baumannii, read-out: MIC80",> 64 µg/mL
same,MIC90,"A. baumannii; Acinetobacter baumannii, 55 isolates of A. baumannii, read-out: MIC90",> 64 µg/mL
same,Number of isolates at MIC >64 µg/mL,"A. baumannii; MIC distribution, metallo-β-lactamase-producing A. baumannii, inhibitor µg/mL in parentheses",4
